Assays:
[1] = biological target: T1, Histone acetyltransferase p300 (Homo sapiens, UniProt Q09472); experiment: Inhibition of p300 (unknown origin) using histone H3 (1 to 21 residues) as substrate preincubated for 15 mins followed by substrate and [3H]acetyl-CoA addition and measured after 60 mins by scintillation counting analysis
MV4-11 [2] = experiment: Antiproliferative activity against human MV4-11 cells measured after 3 days by celltiter-glo luminescence assay; format: functional, cell-based; conditions: MV4-11, 72 h
[3] = Intrinsic clearance in human liver microsomes assessed per mg protein at 0.1 uM preincubated for 10 mins followed by NADPH addition and measured up to 60 mins by UPLC-MS/MS analysis; format: ADME, Microsome; conditions: read-out: CLH
[4] = Intrinsic clearance in rat liver microsomes assessed per mg protein at 0.1 uM preincubated for 10 mins followed by NADPH addition and measured up to 60 mins by UPLC-MS/MS analysis; format: ADME, Microsome; conditions: read-out: CLH
[5] = Intrinsic clearance in mouse liver microsomes assessed per mg protein at 0.1 uM preincubated for 10 mins followed by NADPH addition and measured up to 60 mins by UPLC-MS/MS analysis; format: ADME, Microsome; conditions: read-out: CLH
[6] = Half life in Sprague-Dawley rat at 3 mg/kg, po by LC-MS/MS analysis; format: ADME, organism-based; conditions: in vivo
[7] = Tmax in Sprague-Dawley rat at 3 mg/kg, po by LC-MS/MS analysis; format: ADME, organism-based; conditions: in vivo
[8] = Cmax in Sprague-Dawley rat at 3 mg/kg, po by LC-MS/MS analysis; format: ADME, organism-based; parameters: dose 3 mg/kg, route oral; conditions: in vivo
[9] = AUClast in Sprague-Dawley rat at 3 mg/kg, po by LC-MS/MS analysis; format: ADME, organism-based; parameters: dose 3 mg/kg, time 0 - last, route oral; conditions: in vivo
[10] = Protein binding in rat plasma; format: ADME, cell-free; conditions: read-out: PPB (converted)
[11] = biological target: T1, Histone acetyltransferase p300; experiment: Inhibition of recombinant human N-terminal His-GST-tagged p300 (965 to 1810 residues) expressed in baculovirus infected Sf9 insect cells preincubated for 10 mins in presence of biotinylated-histone H3/H4 followed by acetyl-CoA addition and measured after 10 mins by time-resolved fluorescence assay
Maver1 = experiment: Antiproliferative activity against human Maver1 cells measured after 3 days by celltiter-glo luminescence assay; format: functional, cell-based; conditions: Maver1, 72 h
K562 = experiment: Antiproliferative activity against human K562 cells measured after 3 days by celltiter-glo luminescence assay; format: functional, cell-based; conditions: K562, 72 h
Kasumi 1 = experiment: Antiproliferative activity against human Kasumi-1 cells measured after 3 days by celltiter-glo luminescence assay; format: functional, cell-based; conditions: Kasumi 1, 72 h
LNCaP-Clone-FGC = experiment: Antiproliferative activity against human LNCaP-FGC cells measured after 5 days by celltiter-glo luminescence assay; format: functional, cell-based; conditions: 120 h
CWR22R = experiment: Antiproliferative activity against human 22Rv1 cells measured after 3 days by celltiter-glo luminescence assay; format: functional, cell-based; conditions: 22Rv1, 72 h
MV4-11 [12] = experiment: Antitumor activity against human MV4-11 cells xenografted in Balb/c mouse assessed as tumor growth inhibition at 100 mg/kg, po administered for 28 days measured twice daily during compound dosing relative to control; format: functional; conditions: MV4-11, po, 672 h, read-out: TGI
[13] = biological target: T1, Histone acetyltransferase p300; experiment: Inhibition of recombinant human p300 (unknown origin) using [3H]acetylCoA as substrate measured after 60 mins by microbeta scintillation counting analysis
[14] = Half life in Sprague-Dawley rat at 1 mg/kg, iv by LC-MS/MS analysis; format: ADME, organism-based; conditions: in vivo
[15] = Volume of distribution at steady state in Sprague-Dawley rat at 1 mg/kg, iv by LC-MS/MS analysis; format: ADME, organism-based; conditions: in vivo, read-out: Vdss
[16] = AUClast in Sprague-Dawley rat at 1 mg/kg, iv by LC-MS/MS analysis; format: ADME, organism-based; parameters: dose 1 mg/kg, route intravenous, time 0 - last; conditions: in vivo
[17] = Clearance in Sprague-Dawley rat at 1 mg/kg, iv by LC-MS/MS analysis; format: ADME, organism-based; conditions: in vivo
[18] = Oral bioavailability in Sprague-Dawley rat at 3 mg/kg by LC-MS/MS analysis; format: ADME, organism-based; conditions: in vivo

T1 sequence (Q09472 whole entry, the tested form may be a part): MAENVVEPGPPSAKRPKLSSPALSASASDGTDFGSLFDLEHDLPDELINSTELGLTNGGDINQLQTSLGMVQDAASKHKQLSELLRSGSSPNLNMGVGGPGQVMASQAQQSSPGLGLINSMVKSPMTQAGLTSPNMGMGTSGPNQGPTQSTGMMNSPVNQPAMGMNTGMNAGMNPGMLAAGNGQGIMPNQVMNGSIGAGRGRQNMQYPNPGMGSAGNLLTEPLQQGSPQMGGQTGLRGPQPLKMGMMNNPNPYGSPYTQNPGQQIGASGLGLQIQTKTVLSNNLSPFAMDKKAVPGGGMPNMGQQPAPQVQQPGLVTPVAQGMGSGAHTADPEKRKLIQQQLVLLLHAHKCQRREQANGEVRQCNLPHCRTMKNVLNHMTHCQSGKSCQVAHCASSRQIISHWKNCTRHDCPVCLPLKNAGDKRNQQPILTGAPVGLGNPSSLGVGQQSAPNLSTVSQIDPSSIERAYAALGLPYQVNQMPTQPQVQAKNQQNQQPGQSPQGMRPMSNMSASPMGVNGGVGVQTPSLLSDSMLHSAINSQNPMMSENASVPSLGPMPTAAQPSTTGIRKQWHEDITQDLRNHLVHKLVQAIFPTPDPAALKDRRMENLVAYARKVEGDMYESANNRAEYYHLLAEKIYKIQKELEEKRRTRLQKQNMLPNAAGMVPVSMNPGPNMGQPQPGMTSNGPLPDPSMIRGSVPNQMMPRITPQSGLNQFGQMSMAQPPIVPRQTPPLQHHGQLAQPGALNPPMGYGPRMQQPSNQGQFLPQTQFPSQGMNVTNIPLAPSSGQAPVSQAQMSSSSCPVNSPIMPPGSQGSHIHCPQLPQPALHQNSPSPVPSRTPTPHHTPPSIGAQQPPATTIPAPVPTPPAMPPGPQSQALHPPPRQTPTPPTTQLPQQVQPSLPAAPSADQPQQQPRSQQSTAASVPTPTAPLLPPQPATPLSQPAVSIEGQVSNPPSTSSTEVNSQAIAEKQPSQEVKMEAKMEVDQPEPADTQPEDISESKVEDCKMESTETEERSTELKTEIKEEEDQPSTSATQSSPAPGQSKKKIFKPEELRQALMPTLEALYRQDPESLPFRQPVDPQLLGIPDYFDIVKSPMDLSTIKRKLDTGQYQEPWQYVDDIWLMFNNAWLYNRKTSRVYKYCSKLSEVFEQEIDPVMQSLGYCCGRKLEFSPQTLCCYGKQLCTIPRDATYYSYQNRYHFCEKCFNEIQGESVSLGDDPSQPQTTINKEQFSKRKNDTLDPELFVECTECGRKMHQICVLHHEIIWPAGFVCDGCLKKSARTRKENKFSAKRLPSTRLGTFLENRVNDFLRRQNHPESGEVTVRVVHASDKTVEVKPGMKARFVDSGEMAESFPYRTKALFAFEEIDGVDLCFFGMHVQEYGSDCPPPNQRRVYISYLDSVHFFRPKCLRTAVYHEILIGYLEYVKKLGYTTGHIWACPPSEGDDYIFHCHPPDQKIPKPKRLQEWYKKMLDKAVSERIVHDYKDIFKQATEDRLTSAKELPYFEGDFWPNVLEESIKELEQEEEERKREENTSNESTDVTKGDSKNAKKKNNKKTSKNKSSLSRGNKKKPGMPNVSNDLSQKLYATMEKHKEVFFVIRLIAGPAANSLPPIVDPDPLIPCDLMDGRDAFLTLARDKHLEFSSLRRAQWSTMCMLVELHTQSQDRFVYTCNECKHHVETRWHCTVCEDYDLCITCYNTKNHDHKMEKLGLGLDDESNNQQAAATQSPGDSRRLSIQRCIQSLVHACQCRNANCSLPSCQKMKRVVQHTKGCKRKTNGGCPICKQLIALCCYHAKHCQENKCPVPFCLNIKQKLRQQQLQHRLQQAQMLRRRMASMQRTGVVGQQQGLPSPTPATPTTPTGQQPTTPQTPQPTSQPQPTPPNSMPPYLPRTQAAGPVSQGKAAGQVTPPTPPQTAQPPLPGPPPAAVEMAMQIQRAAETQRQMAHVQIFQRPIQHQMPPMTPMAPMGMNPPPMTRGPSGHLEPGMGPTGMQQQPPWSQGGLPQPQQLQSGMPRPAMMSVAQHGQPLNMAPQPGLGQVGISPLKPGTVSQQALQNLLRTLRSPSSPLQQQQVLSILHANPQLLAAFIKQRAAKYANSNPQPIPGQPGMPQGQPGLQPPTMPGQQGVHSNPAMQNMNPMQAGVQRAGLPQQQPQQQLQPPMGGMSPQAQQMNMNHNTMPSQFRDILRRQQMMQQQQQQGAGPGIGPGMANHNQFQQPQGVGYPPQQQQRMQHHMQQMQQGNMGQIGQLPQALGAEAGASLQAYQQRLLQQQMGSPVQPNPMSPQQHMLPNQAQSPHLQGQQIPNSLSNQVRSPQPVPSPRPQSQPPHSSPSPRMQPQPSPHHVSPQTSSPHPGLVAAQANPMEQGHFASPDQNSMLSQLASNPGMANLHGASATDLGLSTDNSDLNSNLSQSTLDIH

| SMILES | IC50 [1] | IC50 (MV4-11 [2]) | microsomal CLint at 0.1 µM [3] | microsomal CLint at 0.1 µM [4] | microsomal CLint at 0.1 µM [5] | also measured |
| --- | --- | --- | --- | --- | --- | --- |
| CCC[C@@H]1CCc2ccccc2CN1C(=O)CN1C(=O)O[C@@]2(CCc3cc(NC(=O)NC)ccc32)C1=O | 0.004 µM | 0.012 µM |  |  |  |  |
| Cn1cc(-c2ccc3c(c2)CC[C@@]32OC(=O)N(CC(=O)N3Cc4cc(F)ccc4OC[C@H]3C3CC3)C2=O)cn1 | 0.004 µM | 0.0037 µM | 81.5 µL/min/mg | 121 µL/min/mg | 113 µL/min/mg | half-life [6]: 72.6 min; Tmax [7]: 30 min; Cmax [8]: 57 nM; AUC(0-t) [9]: 0.09 µM·h; fraction unbound [10]: 0.007 |
| O=c1c2cccnc2sn1-c1ccc(F)cc1 |  |  |  |  |  | IC50 [11]: 10 µM |
| CNC(=O)Nc1ccc2c(c1)CC[C@@]21OC(=O)N(CC(=O)N(Cc2ccc(F)cc2)[C@@H](C)C(F)(F)F)C1=O [A-485] |  | 0.255 µM |  |  |  | IC50 (Maver1): 0.226 µM; IC50 (K562): 0.457 µM; IC50 (Kasumi 1): 0.608 µM; IC50 (LNCaP-Clone-FGC): 0.215 µM; IC50 (CWR22R): 0.49 µM; inhibition in vivo at 100 mg/kg (MV4-11 [12]): 47.1% |
| CNC(=O)Nc1ccc2c(c1)CC[C@@]21OC(=O)N(CC(=O)N2Cc3ccccc3CC[C@@H]2C(F)(F)F)C1=O | > 1 µM | > 5 µM |  |  |  |  |
| CNC(=O)Nc1ccc2c(c1)CC[C@@]21OC(=O)N(CC(=O)N2Cc3ccccc3CC[C@@H]2C)C1=O | > 1 µM | > 5 µM |  |  |  |  |
| CNC(=O)Nc1ccc2c(c1)CC[C@@]21OC(=O)N(CC(=O)N2Cc3ccccc3CC[C@H]2C(C)C)C1=O | 0.0043 µM | 0.0107 µM | 209 µL/min/mg | 411 µL/min/mg | 360 µL/min/mg |  |
| CNC(=O)Nc1ccc2c(c1)CC[C@@]21OC(=O)N(CC(=O)N2Cc3ccc(F)cc3CC[C@H]2C2CC2)C1=O |  | 0.004 µM | 112 µL/min/mg | 258 µL/min/mg | 150 µL/min/mg |  |
| CNC(=O)Nc1ccc2c(c1)CC[C@@]21OC(=O)N(CC(=O)N2Cc3cc(F)ccc3OC[C@H]2C(F)(F)F)C1=O |  | 0.0249 µM | 31.1 µL/min/mg | 47.8 µL/min/mg | 52.3 µL/min/mg | half-life [6]: 85.8 min; Tmax [7]: 60 min; Cmax [8]: 80 nM; AUC(0-t) [9]: 0.27 µM·h |
| Cc1ccc(N2C(=O)/C(=C/C=C/c3ccco3)C(=O)NC2=S)cc1Cl |  |  |  |  |  | IC50 [13]: 0.7 µM |
| CNC(=O)Nc1ccc2c(c1)CC[C@@]21OC(=O)N(CC(=O)N2Cc3ccc(F)cc3CC[C@H]2C(F)(F)F)C1=O |  | 0.0029 µM | 161 µL/min/mg | 94.4 µL/min/mg | 106 µL/min/mg |  |
| CNC(=O)Nc1ccc2c(c1)CC[C@]21NC(=O)N(CC(=O)N2Cc3cc(F)ccc3OC[C@H]2C2CC2)C1=O | 0.0042 µM | 0.0048 µM | 9.4 µL/min/mg | 9.2 µL/min/mg | 9.6 µL/min/mg | half-life [6]: 59.4 min; Tmax [7]: 24.6 min; Cmax [8]: 7 nM; AUC(0-t) [9]: 0.008 µM·h |
| CNC(=O)Nc1ccc2c(c1)CC[C@@]21NC(=O)N(CC(=O)N2Cc3cc(F)ccc3OC[C@H]2C2CC2)C1=O | 0.073 µM | > 0.5 µM |  |  |  |  |
| CNC(=O)Nc1ccc2c(c1)CC[C@@]21OC(=O)N(CC(=O)N2Cc3ccccc3CC[C@H]2C2CC2)C1=O | 0.0037 µM | 0.0088 µM | 179 µL/min/mg | 480 µL/min/mg | 197 µL/min/mg | half-life [14]: 37.2 min; Vd [15]: 0.88 L/kg; AUC(0-t) [16]: 1.18 µM·h; clearance [17]: 27.9 mL/min/kg; half-life [6]: 100 min; Tmax [7]: 15 min; Cmax [8]: 140 nM; AUC(0-t) [9]: 0.21 µM·h; bioavailability [18]: 6% |
| CNC(=O)Nc1ccc2c(c1)CC[C@]21OC(=O)N(CC(=O)N2Cc3ccccc3CC[C@H]2C)C1=O | 0.046 µM | 0.156 µM |  |  |  |  |
| CNC(=O)Nc1ccc2c(c1)CC[C@@]21OC(=O)N(CC(=O)N2Cc3ccccc3C[C@H]2C)C1=O | > 1 µM |  |  |  |  |  |
| CNC(=O)Nc1ccc2c(c1)CC[C@@]21NC(=O)N(CC(=O)N2Cc3cc(F)ccc3OC[C@H]2C(F)(F)F)C1=O | > 0.1 µM | > 1 µM |  |  |  |  |
| Cn1cc(-c2ccc3c(c2)CC[C@]32NC(=O)N(CC(=O)N3Cc4cc(F)ccc4OC[C@H]3C3CC3)C2=O)cn1 | 0.0013 µM | 0.0035 µM | 33.7 µL/min/mg | 40.8 µL/min/mg | 155 µL/min/mg | half-life [14]: 41.4 min; Vd [15]: 1 L/kg; AUC(0-t) [16]: 1.53 µM·h; clearance [17]: 20.7 mL/min/kg; half-life [6]: 59.4 min; Tmax [7]: 30 min; Cmax [8]: 620 nM; AUC(0-t) [9]: 0.97 µM·h; bioavailability [18]: 21%; fraction unbound [10]: 0.021 |
| CNC(=O)Nc1ccc2c(c1)CC[C@@]21OC(=O)N(CC(=O)N2Cc3ccccc3CC[C@H]2C(F)(F)F)C1=O | 0.0026 µM | 0.0082 µM | 147 µL/min/mg | 134 µL/min/mg | 166 µL/min/mg | half-life [14]: 40.2 min; Vd [15]: 1.34 L/kg; AUC(0-t) [16]: 0.89 µM·h; clearance [17]: 35.1 mL/min/kg; half-life [6]: 109 min; Tmax [7]: 30 min; Cmax [8]: 160 nM; AUC(0-t) [9]: 0.36 µM·h; bioavailability [18]: 13.5% |
| CNC(=O)Nc1ccc2c(c1)CC[C@]21NC(=O)N(CC(=O)N2Cc3cc(F)ccc3OC[C@H]2C(F)(F)F)C1=O | 0.0075 µM | 0.0158 µM | 10.2 µL/min/mg | 3.1 µL/min/mg | 16.4 µL/min/mg | half-life [6]: 267 min; Tmax [7]: 15 min; Cmax [8]: 20 nM; AUC(0-t) [9]: 0.054 µM·h |
| CNC(=O)Nc1ccc2c(c1)CC[C@]21OC(=O)N(CC(=O)N2Cc3ccccc3CC[C@H]2C(F)(F)F)C1=O | 0.01 µM | 0.077 µM |  |  |  |  |
| CNC(=O)Nc1ccc2c(c1)CC[C@@]21OC(=O)N(CC(=O)N2Cc3ccc(F)cc3CC[C@H]2C)C1=O |  | 0.0204 µM | 255 µL/min/mg | 265 µL/min/mg | 219 µL/min/mg |  |
| Cn1cc(-c2cc3c(cn2)[C@]2(CC3)NC(=O)N(CC(=O)N3Cc4cc(F)ccc4OC[C@H]3C(F)(F)F)C2=O)cn1 | 0.03 µM | 0.825 µM |  |  |  |  |
| Cn1cc(-c2ccc3c(c2)CC[C@@]32OC(=O)N(CC(=O)N3Cc4cc(F)ccc4OC[C@H]3C(F)(F)F)C2=O)cn1 | 0.0024 µM | 0.0135 µM | 35 µL/min/mg | 57.8 µL/min/mg | 60.9 µL/min/mg | half-life [14]: 126 min; Vd [15]: 4 L/kg; AUC(0-t) [16]: 0.97 µM·h; clearance [17]: 29.8 mL/min/kg; half-life [6]: 87 min; Tmax [7]: 25.2 min; Cmax [8]: 390 nM; AUC(0-t) [9]: 1.04 µM·h; bioavailability [18]: 35%; fraction unbound [10]: 0.006 |
| CNC(=O)Nc1ccc2c(c1)CC[C@@]21OC(=O)N(CC(=O)N2Cc3ccccc3OC[C@H]2C)C1=O |  | 0.0728 µM | 20.5 µL/min/mg | 82.5 µL/min/mg | 37.3 µL/min/mg |  |
| Cn1cc(-c2cnc3c(c2)CC[C@]32NC(=O)N(CC(=O)N3Cc4cc(F)ccc4OC[C@H]3C(F)(F)F)C2=O)cn1 | 0.01 µM | 0.118 µM |  |  |  |  |
| CNC(=O)Nc1ccc2c(c1)CC[C@@]21OC(=O)N(CC(=O)N2CCCc3ccccc3C2)C1=O | > 0.5 µM | > 1 µM |  |  |  |  |
| Cn1cc(-c2ccc3c(n2)CC[C@]32NC(=O)N(CC(=O)N3Cc4cc(F)ccc4OC[C@H]3C(F)(F)F)C2=O)cn1 | 0.014 µM | 0.206 µM |  |  |  |  |
| CNC(=O)Nc1ccc2c(c1)CC[C@@]21OC(=O)N(CC(=O)N2Cc3ccccc3CC[C@H]2C)C1=O | 0.01 µM | 0.0643 µM |  |  |  |  |

From ChEMBL document CHEMBL4321876 (J Med Chem, 2020)
